Values quoted from earlier work as cited in patent US9090606B2, “Compounds” (CHIESI FARMACEUTICI S.p.A., priority 2012, dated 2015).

Key:
[1] = test system: smoking model of COPD in mice
[2] = patients with severe disease, frequent exacerbations and mucus hypersecretion

O=C(Nc1c(Cl)cncc1Cl)c1ccc(OC(F)F)c(OCC2CC2)c1 [roflumilast]
effect on lung inflammation and emphysema [1]: inhibits lung inflammation and emphysema | reduction of the numbers of neutrophils in sputum (COPD patients; COPD patients, oral, given over 4 weeks): 36% | improvement of FEV 1 (COPD patients; [2]): approximately 50 mL | reduction of exacerbation (COPD patients; [2]): about 15%
